Test results reported in patent US8791148B2, “Substituted benzimidazolone derivatives, medicaments comprising them and their use” (AbbVie Deutschland GmbH & Co. KG, priority 2006, dated 2014).
pKi: −log10 of the molar value.

The compounds below were run against T1, human vasopressin V1b receptor (Homo sapiens, UniProt P47901) (assay: Vasopressin V1b receptor binding assay). Details: membranes from CHO-K1 cells with stably expressed human V1b receptors; displacement of 1.5 nM 3H-AVP; read-out: V1b receptor affinity (affinity constant Ki).
T1 construct: expressed in transfected cells; host or cells: CHO-K1 (cell line hV1b-3H2_CHO), membrane preparation
T1 sequence (P47901 1-424): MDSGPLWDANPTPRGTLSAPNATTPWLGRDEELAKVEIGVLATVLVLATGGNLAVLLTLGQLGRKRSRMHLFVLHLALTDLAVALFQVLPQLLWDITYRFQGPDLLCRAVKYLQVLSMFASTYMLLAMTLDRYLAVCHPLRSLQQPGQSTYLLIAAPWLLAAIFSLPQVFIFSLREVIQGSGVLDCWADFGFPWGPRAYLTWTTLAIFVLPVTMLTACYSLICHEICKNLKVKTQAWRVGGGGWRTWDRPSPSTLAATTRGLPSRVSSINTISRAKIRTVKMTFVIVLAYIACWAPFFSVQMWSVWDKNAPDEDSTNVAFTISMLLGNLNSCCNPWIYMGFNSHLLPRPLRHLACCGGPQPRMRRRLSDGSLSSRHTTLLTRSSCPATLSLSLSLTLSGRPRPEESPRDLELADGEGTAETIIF
Protocol: Vasopressin V1b Receptor Binding Assay:
The test substances were dissolved in a concentration of 10^−2 M in DMSO and further diluted to 5×10^−4 M to 5×10^−9 M in DMSO. This series of DMSO predilutions was diluted 1:10 with assay buffer. The substance concentration was again diluted 1:5 in the assay mixture (2% DMSO in the mixture).
The membrane pellet was again homogenized and centrifuged as described and then taken up in 50 mM Tris-HCl, pH 7.4, homogenized and stored in aliquots frozen in liquid nitrogen at −190° C.
The incubation buffer was: 50 mM Tris, 10 mM MgCl2, 0.1% BSA, pH 7.4. […] The nonspecific binding was determined with 1 uM AVP (Bachem #H1780). All determinations were carried out as triplicate determinations. After incubation (60 minutes at room temperature), the free radioligand was removed by vacuum filtration (Skatron cell harvester 7000) through Wathman GF/B glass fiber filter mats, and the filters were transferred into scintillation vials. The liquid scintillation measurement took place in a Tricarb model 2000 or 2200CA instrument (Packard). Conversion of the measured cpm into dpm was carried out with the aid of a standard quench series.
The binding parameters were calculated by nonlinear regression in SAS.
The above assay was used to measure the affinities of the compounds of the invention for the human vasopressin V1b receptor and to determine the affinity constants (Ki).

pKi	Compound
5.00 to 6.30	O=C(C(c1ccccc1)n1c(=O)n(S(=O)(=O)c2ccc(C(F)(F)F)cc2)c2ccc(Cl)cc21)N1CCN(c2ccncc2)CC1 (centres unmarked) [Example 49, 5-Chloro-3-[2-oxo-1-phenyl-2-(4-pyridin-4-ylpiperazin-1-yl)ethyl]-1-(4-trifluoromethylbenzenesulfonyl)-1,3-dihydrobenzimidazol-2-one]
5.00 to 6.30	N#Cc1ccc2c(c1)n(C(C(=O)N1CCN(c3ccncc3)CC1)c1ccccc1)c(=O)n2S(=O)(=O)c1cccc2cccnc12 (centres unmarked) [Example 50, 2-Oxo-3-[2-oxo-1-phenyl-2-(4-pyridin-4-ylpiperazin-1-yl)ethyl]-1-(quinoline-8-sulfonyl)-2,3-dihydro-1H-benzimidazole-5-carbonitrile]
5.00 to 6.30	N#Cc1ccc(S(=O)(=O)n2c(=O)n(C(C(=O)N3CCN(c4ccncc4)CC3)c3ccccc3)c3cc(C#N)ccc32)cc1 (centres unmarked) [Example 51, 1-(4-Cyanobenzenesulfonyl)-2-oxo-3-[2-oxo-1-phenyl-2-(4-pyridin-4-ylpiperazin-1-yl)ethyl]-2,3-dihydro-1H-benzimidazole-5-carbonitrile]
> 7.00	CCCN1CCN(C2CCN(C(=O)C(c3ccccc3)n3c(=O)n(S(=O)(=O)c4ccc(OC)cc4)c4ccc(C#N)cc43)C2)CC1 (centres unmarked) [Example 52, 1-(4-Methoxybenzenesulfonyl)-2-oxo-3-{2-oxo-1-phenyl-2-[3-(4-propylpiperazin-1-yl)-pyrrolidin-1-yl]-ethyl}-2,3-dihydro-1H-benzimidazole-5-carbonitrile]
> 7.00	O=C(C(c1ccccc1)n1c(=O)n(S(=O)(=O)c2cccc3cccnc23)c2ccc(Cl)cc21)N1CCN(c2ccncc2)CC1 (centres unmarked) [Example 53, 5-Chloro-3-[2-oxo-1-phenyl-2-(4-pyridin-4-ylpiperazin-1-yl)ethyl]-1-(quinoline-8-sulfonyl)-1,3-dihydrobenzimidazol-2-one]
6.30 to 7.00	COc1ccc(S(=O)(=O)n2c(=O)n(C(C(=O)N3CCN(C4CCN(C)CC4)CC3)c3ccccc3)c3cc(Cl)ccc32)cc1 (centres unmarked) [Example 55, 5-Chloro-1-(4-methoxybenzenesulfonyl)-3-{2-[4-(1-methylpiperidin-4-yl)piperazin-1-yl]-2-oxo-1-phenylethyl}-1,3-dihydrobenzimidazol-2-one]
6.30 to 7.00	COc1ccc(S(=O)(=O)n2c(=O)n(C(C(=O)N3CCN(c4ccncc4)CC3)c3ccccc3)c3cc(Cl)ccc32)c(OC)c1 (centres unmarked) [Example 56, 5-Chloro-1-(2,4-dimethoxybenzenesulfonyl)-3-[2-oxo-1-phenyl-2-(4-pyridin-4-ylpiperazin-1-yl)-ethyl]-1,3-dihydrobenzimidazol-2-one]
> 7.00	N#Cc1ccc(S(=O)(=O)n2c(=O)n(C(C(=O)N3CCN(c4ccncc4)CC3)c3ccccc3)c3cc(Cl)ccc32)cc1 (centres unmarked) [Example 57, 4-{5-Chloro-2-oxo-3-[2-oxo-1-phenyl-2-(4-pyridin-4-ylpiperazin-1-yl)-ethyl]-2,3-dihydrobenzimidazole-1-sulfonyl}-benzonitrile]
> 7.00	COc1ccc(S(=O)(=O)n2c(=O)n(C(C(=O)N3CCN(c4ccncc4)CC3)c3ccccc3)c3cc(Cl)ccc32)cc1 (centres unmarked) [Example 58, 5-Chloro-1-(4-methoxybenzenesulfonyl)-3-[2-oxo-1-phenyl-2-(4-pyridin-4-ylpiperazin-1-yl)ethyl]-1,3-dihydrobenzimidazol-2-one]
5.00 to 6.30	COc1ccc(S(=O)(=O)n2c(=O)n(C(C(=O)N3CCN(c4ccncc4)CC3)c3ccccc3)c3cc(Cl)c(Cl)cc32)c(OC)c1 (centres unmarked) [Example 59, 5,6-Dichloro-1-(2,4-dimethoxybenzenesulfonyl)-3-[2-oxo-1-phenyl-2-(4-pyridin-4-ylpiperazin-1-yl)ethyl]-1,3-dihydrobenzoimidaz]
5.00 to 6.30	COc1ccc(S(=O)(=O)n2c(=O)n(C(C(=O)N3CCN(C4CCN(C)CC4)CC3)c3ccccc3)c3ccccc32)cc1 (centres unmarked) [Example 60, 1-(4-Methoxybenzenesulfonyl)-3-{2-[4-(1-methylpiperidin-4-yl)piperazin-1-yl]-2-oxo-1-phenyl-ethyl}-1,3-dihydrobenzimidazol-2-one]
5.00 to 6.30	N#Cc1ccc(S(=O)(=O)n2c(=O)n(C(C(=O)N3CCN(c4ccncc4)CC3)c3ccccc3)c3cc(Cl)c(Cl)cc32)cc1 (centres unmarked) [Example 62, 4-{5,6-Dichloro-2-oxo-3-[2-oxo-1-phenyl-2-(4-pyridin-4-ylpiperazin-1-yl)-ethyl]-2,3-dihydrobenzimidazol-1-sulfonyl}benzonitrile]
6.30 to 7.00	COc1ccc(S(=O)(=O)n2c(=O)n(C(C(=O)N3CCC(N4CCN(C)CC4)CC3)c3ccccc3)c3cc(Cl)ccc32)c(OC)c1 (centres unmarked) [Example 63, 5-Chloro-1-(2,4-dimethoxybenzenesulfonyl)-3-{2-[4-(4-methylpiperazin-1-yl)piperidin-1-yl]-2-oxo-1-phenylethyl}-1,3-dihydrobenzimidazol-2-one]
6.30 to 7.00	COc1ccc(S(=O)(=O)n2c(=O)n(C(C(=O)N3CCC(N4CCN(C)CC4)CC3)c3ccccc3)c3cc(Cl)ccc32)cc1 (centres unmarked) [Example 64, 5-Chloro-1-(4-methoxybenzenesulfonyl)-3-{2-[4-(4-methylpiperazin-1-yl)piperidin-1-yl]-2-oxo-1-phenylethyl}-1,3-dihydrobenzimidazol-2-one]
6.30 to 7.00	CN1CCN(C2CCN(C(=O)C(c3ccccc3)n3c(=O)n(S(=O)(=O)c4ccc(C#N)cc4)c4ccc(Cl)cc43)CC2)CC1 (centres unmarked) [Example 65, 4-(5-Chloro-3-{2-[4-(4-methylpiperazin-1-yl)piperidin-1-yl]-2-oxo-1-phenylethyl}-2-oxo-2,3-dihydrobenzimidazole-1-sulfonyl)benzonitrile]
5.00 to 6.30	COc1ccc(S(=O)(=O)n2c(=O)n(C(C(=O)N3CCN(c4ccncc4)CC3)c3ccccc3)c3ccc(Cl)cc32)c(OC)c1 (centres unmarked) [Example 66, 5-Chloro-3-(2,4-dimethoxybenzenesulfonyl)-1-[2-oxo-1-phenyl-2-(4-pyridin-4-ylpiperazin-1-yl)ethyl]-1,3-dihydrobenzimidazol-2-one]
5.00 to 6.30	COc1ccc(S(=O)(=O)n2c(=O)n(C(C(=O)N3CCN(C4CCN(C)CC4)CC3)c3ccccc3)c3ccccc32)c(OC)c1 (centres unmarked) [Example 67, 1-(2,4-Dimethoxybenzenesulfonyl)-3-{2-[4-(1-methylpiperidin-4-yl)piperazin-1-yl]-2-oxo-1-phenylethyl}-1,3-dihydrobenzimidazol-2-one]
6.30 to 7.00	CN1CCC(N2CCN(C(=O)C(c3ccccc3)n3c(=O)n(S(=O)(=O)c4ccc(C#N)cc4)c4ccc(Cl)cc43)CC2)CC1 (centres unmarked) [Example 68, 4-(5-Chloro-3-{2-[4-(1-methylpiperidin-4-yl)piperazin-1-yl]-2-oxo-1-phenylethyl}-2-oxo-2,3-dihydrobenzimidazol-1-sulfonyl)benzonitrile]
5.00 to 6.30	COc1ccc(S(=O)(=O)n2c(=O)n(C(C(=O)N3CCN(C4CCN(C)CC4)CC3)c3ccccc3)c3cc(Cl)c(Cl)cc32)c(OC)c1 (centres unmarked) [Example 69, 5,6-Dichloro-1-(2,4-dimethoxybenzenesulfonyl)-3-{2-[4-(1-methylpiperidin-4-yl)piperazin-1-yl]-2-oxo-1-phenyl-ethyl}-1,3-dihydrobenzimidazol-2-one]
5.00 to 6.30	COc1ccc(S(=O)(=O)n2c(=O)n(C(C(=O)N3CCN(c4ccncc4)CC3)c3ccccc3)c3ccccc32)c(OC)c1 (centres unmarked) [Example 70, 1-(2,4-Dimethoxybenzenesulfonyl)-3-[2-oxo-1-phenyl-2-(4-pyridin-4-ylpiperazin-1-yl)ethyl]-1,3-dihydrobenzimidazol-2-one]
5.00 to 6.30	CN1CCC(N2CCN(C(=O)C(c3ccccc3)n3c(=O)n(S(=O)(=O)c4cccc5cccnc45)c4cc(Cl)ccc43)CC2)CC1 (centres unmarked) [Example 71, 5-Chloro-1-{2-[4-(1-methylpiperidin-4-yl)piperazin-1-yl]-2-oxo-1-phenyl-ethyl}-3-(quinoline-8-sulfonyl)-1,3-dihydrobenzimidazol-2-one]
5.00 to 6.30	COc1ccc(S(=O)(=O)n2c(=O)n(C(C(=O)N3CCC(N4CCN(C)CC4)CC3)c3ccccc3)c3ccccc32)c(OC)c1 (centres unmarked) [Example 72, 1-(2,4-Dimethoxybenzenesulfonyl)-3-{2-[4-(4-methylpiperazin-1-yl)piperidin-1-yl]-2-oxo-1-phenylethyl}-1,3-dihydrobenzimidazol-2-one]
6.30 to 7.00	COc1ccc(S(=O)(=O)n2c(=O)n(C(C(=O)N3CCN(c4ccncc4)CC3)c3ccccc3)c3ccc(Cl)cc32)cc1 (centres unmarked) [Example 73, 5-Chloro-3-(4-methoxybenzenesulfonyl)-1-[2-oxo-1-phenyl-2-(4-pyridin-4-ylpiperazin-1-yl)-ethyl]-1,3-dihydrobenzimidazol-2-one]
